Measurements reported in paper PMC8001353, “Tryptophanol-Derived Oxazolopyrrolidone Lactams as Potential Anticancer Agents against Gastric Adenocarcinoma” (Pharmaceuticals, 2021).

What was measured:
[1] = test system: human gastric adenocarcinoma (AGS) cell line; experiment: MTT reduction assay, cell viability / cytotoxicity in AGS cell line; assay type: cell-based; conditions: for potency relative to hit 7c (times more potent / fold more active): AGS cells, ratio of IC50 values; for viability at 50 µM: Homo sapiens, AGS cell line, cell viability, MTT, 48 h incubation, mean ± SD, read-out: % CV at 50 µM
Procedure: (§1) The cytotoxicity was assessed in different cell lines with the endpoint MTT, using previously reported procedure. The following cells were obtained from the American Type Culture Collection: human embryonic kidney epithelial cell line (HEK 293T, ATCC HBT-22™), breast cancer cell line (MDA-MB-231, ATCC HTB-26™), osteosarcoma cell line (MG-63, ATCC CRL-1427™), gastric adenocarcinoma cell line (AGS, ATTC CRL-1739TM), prostate cancer cell line (DU-145, ATTC HTB-81™), and lung carcinoma cell line (A-549, ATCC CCL-185™). All cell lines were seeded at 2 × 10^4 cells/well with exception of A-549 cell line, which was seeded at 5 × 10^3 cells/well.

[2] = test system: A-549 (lung carcinoma); experiment: MTT cytotoxicity assay in A-549; assay type: cell-based; conditions: Homo sapiens, A549, 48 h incubation, mean ± SD
Procedure: as §1

[3] = test system: MG-63 (osteosarcoma); experiment: MTT cytotoxicity assay in MG-63; assay type: cell-based; conditions: Homo sapiens, 48 h incubation, mean ± SD
Procedure: as §1

[4] = test system: caspase 3/7 activity in AGS cells; experiment: Caspase 3/7 activity assay (Ac-DEVD-AMC fluorimetric) in AGS cells; assay type: cell-based, human; conditions: 48 h incubation at 12.5 µM, vs control, p < 0.05
Procedure: The activity of caspase 3/7 was determined by fluorimetric assay based on the hydrolysis of the peptide substrate acetyl-Asp-Glu-ValAsp-7-amido-4-methylcoumarin (Ac-DEVD-AMC) by caspase 3/7 using a previously reported procedure.

[5] = Metabolic stability in human liver microsomes with NADPH; assay type: in vitro ADME
Procedure: The evaluation of the metabolic stability of compound 7s was conducted in human liver microsomes (GIBCO^TM, 20 donors) by a previously reported procedure. Specifically, for a total incubation volume of 1 mL, in 100 mM phosphate buffer at pH 7.4, 7s (10 μM), human liver microsomes (0.8 mg protein/mL), NADPH (1 mM), and NADPH regeneration system (10 µL, Vivid® Regeneration System, 100×) were used. Nevirapine was used as a positive control. Additional control incubations were performed in the absence of 7s or NADPH, and using heat-denatured (90 °C, 15 min) microsomes. The resulting mixtures were incubated at 37 °C, and all assays were run in duplicate. Aliquots (50 µL) were collected at different time points (0, 5, 10, 20, 30, 40, 50, 60, 75, 90, 120, and 180 min and 24 h) and 50 µL of cold reserpine solution (2.5 µM in acetonitrile) was then added to quench the reactions. Following centrifugation (10 min, 10,000× g, 4 °C), the supernatants were stored at −20 °C until LC-MS and LC-HRMS/MS analysis.
Samples from the metabolic stability assay were analyzed by LC-MS using the experimental conditions previously described. The in vitro depletion half-life of 7s, t1/2, was calculated using Equation (1), assuming that the compound follows a first-order kinetic trend (see Supplementary Materials Figure S2). The “slope” was determined from linear fitting of the natural logarithm of the concentration of drug remaining plotted against time. (1) t1/2=ln2/slope
The intrinsic clearance was calculated using Equation (2) (2) CLint = 0.693/ t1/2 × mL incubation/mg microsomes × 45 mg microsomes/g liver × 26 g liver/Kg b.w.

[6] = Buffer (PBS pH 7.4) stability; assay type: physicochemical; conditions: PBS pH 7.4, 24 h incubation, 37 °C
Procedure: (§2) Human plasma was obtained from healthy volunteers and provided by Instituto Português do Sangue, Lisbon, Portugal. Buffer and human plasma stabilities were determined by standard methodology. Specifically, human plasma was centrifuged (5 min, 2000× g, room temperature) and, then, diluted 50% in PBS buffer (pH 7.4). The reactions were initiated by the addition of a solution of compound 7s (4 mM in DMSO, 25 µL) to 975 µL of plasma solution, at 37 °C, obtaining a final concentration of 100 µM. Solutions were stirred at 37 °C and 100 µL aliquots were collected at different time points: 0, 30, 60, 120, and 180 min (one additional aliquot was collected at 24 h). A cold reserpine solution (internal standard, 5 µM in acetonitrile, 300 µL) was then added to quench the reactions. Following centrifugation (10 min, 10,000× g, room temperature), the clear supernatants were stored at −20 °C until further analysis by HPLC-DAD. Assays were run in duplicate and procaine was used as a positive control for plasma stability. Additional control assays were conducted using PBS (pH 7.4) instead of a plasma solution. HPLC-DAD analysis was performed as previously described.

[7] = Human plasma stability; assay type: in vitro ADME; conditions: human plasma diluted 50% in PBS, 24 h incubation, 37 °C, 100 µM
Procedure: as §2

| SMILES | potency relative to hit 7c (times more potent / fold more active) [1] | viability at 50 µM [1] [%] | IC50 [2] [µM] | IC50 [3] [µM] | caspase 3/7 activity [4] | in vitro metabolic stability [5] | intrinsic hepatic clearance (CLint) ([5]; calculated from t1/2 (Equation 2)) [min⁻¹ mL⁻¹ kg⁻¹] | half-life at 10 µM ([5]; pH 7.4, 10 µM, 37 °C, read-out: half-life (t1/2)) [min] | stability in PBS [6] | stability in human plasma [7] |
| --- | --- | --- | --- | --- | --- | --- | --- | --- | --- | --- |
| O=C1CC[C@]2(c3ccc(-c4ccc(C(F)(F)F)cc4)cc3)OC[C@@H](Cc3c[nH]c4ccccc34)N12 [Compound 7o, (3R,7aR)-3-((1H-indol-3-yl)methyl)-7a-(4’-(trifluoromethyl)-[1,1’-biphenyl]-4-yl)tetrahydropyrrolo[2,1-b]oxazol-5(6H)-one] | 2.3 | 7 ± 1 | > 60 | 26.8 ± 0.4 | significant increase | – | – | – | – | – |
| O=C1CC[C@]2(c3ccc(-c4ccc(Cl)c(Cl)c4)cc3)OC[C@@H](Cc3c[nH]c4ccccc34)N12 [Compound 7s, (3R,7aR)-3-((1H-indol-3-yl)methyl)-7a-(3’,4’-dichloro-[1,1’-biphenyl]-4-yl)tetrahydropyrrolo[2,1-b]oxazol-5(6H)-one] | 2.3 | 8 ± 1 | > 60 | – | significant increase | moderately stable | 22.8 | 45 | chemical stability in PBS conditions | stability in PBS conditions and under plasmatic enzyme activity |
